Source: patent US7879881B2, “Piperidinyl compounds that selectively bind integrins” (Janssen Pharmaceutica NV, priority 2002, dated 2011)

What was measured:
Human αvβ3 = target: T1, Human αvβ3 (Homo sapiens, UniProt P05106+P06756); experiment: In Vitro Solid Phase Purified αvβ3 Binding Assay (vitronectin/αvβ3); details: vitronectin binding to immobilized purified human αvβ3; mean ± spread; read-out: αvβ3IC50
T1 construct: purchased Chemicon International Inc., Temecula, Calif
In short: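 Purified human αvβ3 immobilized at 1 μg/ml in Tris buffer with Ca, Mg and Mn; compounds competed with 2 nM vitronectin for 3 h at 37 °C. Bound vitronectin detected by anti-vitronectin antibody and peroxidase ABC, absorbance at 490 nm.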

GP IIb/IIIa = GP IIb/IIIa (Homo sapiens, UniProt P05106+P08514); experiment: In Vitro Solid Phase Purified GP IIb/IIIa Binding Assay (biotinylated fibrinogen); details: biotinylated fibrinogen binding to immobilized purified GP IIb/IIIa; mean ± spread; read-out: αIIbβ3 IC50
GP IIb/IIIa, sequence (P08514 32-887 limits assumed): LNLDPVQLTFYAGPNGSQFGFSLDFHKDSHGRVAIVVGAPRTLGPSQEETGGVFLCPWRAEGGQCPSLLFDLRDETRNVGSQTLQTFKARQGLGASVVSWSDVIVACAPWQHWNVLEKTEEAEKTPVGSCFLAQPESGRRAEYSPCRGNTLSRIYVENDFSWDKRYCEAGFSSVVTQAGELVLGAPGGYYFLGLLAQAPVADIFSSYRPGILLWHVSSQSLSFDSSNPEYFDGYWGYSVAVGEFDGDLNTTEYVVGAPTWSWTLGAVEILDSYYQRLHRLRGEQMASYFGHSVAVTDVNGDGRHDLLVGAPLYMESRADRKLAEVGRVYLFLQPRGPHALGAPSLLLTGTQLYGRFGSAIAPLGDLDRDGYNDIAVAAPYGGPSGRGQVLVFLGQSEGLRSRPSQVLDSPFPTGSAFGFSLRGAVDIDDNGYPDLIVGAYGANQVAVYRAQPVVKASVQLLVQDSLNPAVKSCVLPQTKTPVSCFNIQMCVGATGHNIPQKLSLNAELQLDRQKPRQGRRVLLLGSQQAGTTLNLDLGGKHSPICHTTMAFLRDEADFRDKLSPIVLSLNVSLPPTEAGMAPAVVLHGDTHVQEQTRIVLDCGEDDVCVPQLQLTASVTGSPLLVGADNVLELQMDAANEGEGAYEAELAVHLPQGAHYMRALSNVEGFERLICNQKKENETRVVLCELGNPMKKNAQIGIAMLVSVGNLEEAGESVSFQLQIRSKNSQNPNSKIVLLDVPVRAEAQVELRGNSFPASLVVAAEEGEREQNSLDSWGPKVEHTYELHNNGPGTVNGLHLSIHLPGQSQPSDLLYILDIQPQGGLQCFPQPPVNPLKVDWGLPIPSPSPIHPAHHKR
GP IIb/IIIa, sequence (P08514 891-1039 partner limits assumed): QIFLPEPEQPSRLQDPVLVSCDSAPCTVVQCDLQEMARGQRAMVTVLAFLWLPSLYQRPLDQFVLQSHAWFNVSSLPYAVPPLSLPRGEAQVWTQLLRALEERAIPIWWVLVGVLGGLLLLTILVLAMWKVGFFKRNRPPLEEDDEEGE
GP IIb/IIIa, sequence (P05106 27-788): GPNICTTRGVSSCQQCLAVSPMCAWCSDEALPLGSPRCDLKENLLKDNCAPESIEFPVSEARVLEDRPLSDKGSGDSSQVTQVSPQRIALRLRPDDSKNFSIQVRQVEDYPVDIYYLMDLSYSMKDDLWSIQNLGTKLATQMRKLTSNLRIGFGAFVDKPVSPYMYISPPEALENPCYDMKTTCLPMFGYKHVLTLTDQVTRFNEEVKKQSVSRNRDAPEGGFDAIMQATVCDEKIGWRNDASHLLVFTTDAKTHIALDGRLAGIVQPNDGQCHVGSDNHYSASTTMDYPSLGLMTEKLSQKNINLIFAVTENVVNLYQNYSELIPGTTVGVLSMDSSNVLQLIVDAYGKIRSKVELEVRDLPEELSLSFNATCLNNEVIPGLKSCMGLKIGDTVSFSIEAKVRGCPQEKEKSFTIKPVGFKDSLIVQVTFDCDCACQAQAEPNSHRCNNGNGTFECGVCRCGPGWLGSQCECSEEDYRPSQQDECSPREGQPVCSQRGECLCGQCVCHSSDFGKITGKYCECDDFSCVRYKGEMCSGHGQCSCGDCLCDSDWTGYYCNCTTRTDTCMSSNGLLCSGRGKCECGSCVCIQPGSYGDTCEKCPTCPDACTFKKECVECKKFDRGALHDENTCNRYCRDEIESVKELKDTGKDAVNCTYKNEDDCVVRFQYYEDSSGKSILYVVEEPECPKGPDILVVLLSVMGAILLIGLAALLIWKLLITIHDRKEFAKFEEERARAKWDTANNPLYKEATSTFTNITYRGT
In short: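 Purified GP IIb/IIIa coated overnight at 4° C, blocked with 5% BSA, then incubated with test compound and biotinylated fibrinogen for 2-4 h at RT in modified Tyrodes buffer. Bound fibrinogen detected with avidin-biotin HRP complex and o-phenylenediamine/H2O2 (citrate/phosphate pH 5.3), stopped with 2 N H2SO4.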

human purified αVβ5 = target: T2, human purified αVβ5 (Homo sapiens, UniProt P06756+P18084); experiment: In Vitro Solid Phase Purified αcβ5 Binding Assay (vitronectin/αVβ5); details: vitronectin binding to immobilized purified human αVβ5; mean ± spread; read-out: αvβ5 IC50
T2 construct: purchased Chemicon International, Inc
T2 sequence (P06756 31-889 limits assumed): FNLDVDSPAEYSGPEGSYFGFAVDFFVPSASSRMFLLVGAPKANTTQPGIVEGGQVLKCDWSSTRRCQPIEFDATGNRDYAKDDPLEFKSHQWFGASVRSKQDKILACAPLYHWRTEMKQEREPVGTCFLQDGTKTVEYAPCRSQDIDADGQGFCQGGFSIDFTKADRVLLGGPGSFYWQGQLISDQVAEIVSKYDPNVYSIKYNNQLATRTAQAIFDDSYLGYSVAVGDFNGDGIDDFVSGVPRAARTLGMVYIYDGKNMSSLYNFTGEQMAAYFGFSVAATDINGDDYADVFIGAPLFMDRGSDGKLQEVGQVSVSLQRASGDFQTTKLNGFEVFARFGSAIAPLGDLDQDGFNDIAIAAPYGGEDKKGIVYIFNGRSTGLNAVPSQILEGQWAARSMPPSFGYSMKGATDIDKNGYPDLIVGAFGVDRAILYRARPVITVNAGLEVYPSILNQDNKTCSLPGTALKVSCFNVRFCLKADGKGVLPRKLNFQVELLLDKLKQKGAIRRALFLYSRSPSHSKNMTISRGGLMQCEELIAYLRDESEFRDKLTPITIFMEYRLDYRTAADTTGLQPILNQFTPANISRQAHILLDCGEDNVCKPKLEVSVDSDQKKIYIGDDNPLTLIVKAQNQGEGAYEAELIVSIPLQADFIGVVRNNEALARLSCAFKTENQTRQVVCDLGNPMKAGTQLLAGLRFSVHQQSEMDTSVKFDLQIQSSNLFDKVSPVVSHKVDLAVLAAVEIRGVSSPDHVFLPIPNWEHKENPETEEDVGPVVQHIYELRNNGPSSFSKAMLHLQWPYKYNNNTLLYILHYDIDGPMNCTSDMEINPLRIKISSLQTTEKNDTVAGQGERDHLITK
T2 sequence (P06756 891-1048 partner limits assumed): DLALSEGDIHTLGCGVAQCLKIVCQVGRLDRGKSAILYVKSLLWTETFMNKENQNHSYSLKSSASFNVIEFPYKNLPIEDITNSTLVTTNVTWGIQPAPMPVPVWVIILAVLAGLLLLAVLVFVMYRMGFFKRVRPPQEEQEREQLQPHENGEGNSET
T2 sequence (P18084 24-799): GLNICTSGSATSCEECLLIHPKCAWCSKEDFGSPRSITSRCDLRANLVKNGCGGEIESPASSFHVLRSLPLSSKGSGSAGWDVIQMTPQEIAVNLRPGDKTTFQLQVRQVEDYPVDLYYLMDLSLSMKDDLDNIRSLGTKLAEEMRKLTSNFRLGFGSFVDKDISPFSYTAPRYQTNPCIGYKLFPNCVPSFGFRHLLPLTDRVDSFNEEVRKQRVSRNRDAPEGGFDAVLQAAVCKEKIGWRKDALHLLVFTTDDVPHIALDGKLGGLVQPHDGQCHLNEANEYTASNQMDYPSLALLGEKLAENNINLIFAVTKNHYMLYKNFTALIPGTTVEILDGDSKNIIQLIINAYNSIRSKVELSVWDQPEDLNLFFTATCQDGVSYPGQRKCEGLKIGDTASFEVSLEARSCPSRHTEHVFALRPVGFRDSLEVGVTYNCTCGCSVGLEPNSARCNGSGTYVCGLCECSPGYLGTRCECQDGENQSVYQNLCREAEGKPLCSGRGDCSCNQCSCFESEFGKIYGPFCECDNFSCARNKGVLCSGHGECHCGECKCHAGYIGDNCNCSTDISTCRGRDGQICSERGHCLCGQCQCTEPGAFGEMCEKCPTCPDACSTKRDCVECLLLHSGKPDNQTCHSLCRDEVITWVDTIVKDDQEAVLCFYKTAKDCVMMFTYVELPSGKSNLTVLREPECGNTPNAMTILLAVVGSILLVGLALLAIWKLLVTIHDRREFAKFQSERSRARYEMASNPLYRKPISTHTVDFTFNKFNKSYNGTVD
In short: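 Purified human integrin immobilized at 1 μg/ml in Tris buffer with Ca2+, Mg2+, Mn2+ and NaCl, then BSA-blocked. Compounds added just before 2 nM vitronectin, 3 h at 37 °C. Bound vitronectin detected by anti-vitronectin antibody with biotin/peroxidase (ABC) detection at 490 nm.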

T1 sequence (P06756 31-889 limits assumed): as the sequence (P06756 31-889 limits assumed) above
T1 sequence (P06756 891-1048 partner limits assumed): as the sequence (P06756 891-1048 partner limits assumed) above
T1 sequence (P05106 27-788): as the sequence (P05106 27-788) above

Compound: O=C(O)CC(CC1CCN(C(=O)CCc2ccc3c(n2)NCCC3)CC1)c1cc(F)cc(F)c1 (stereo not drawn) [Cpd 37, β-(3,5-difluorophenyl)-1-[1-oxo-3-(5,6,7,8-tetrahydro-1,8-naphthyridin-2-yl)propyl]-4-piperidinebutanoic acid]
- IC50 (Human αvβ3): 15.8 ± 4.3 nM
- IC50 (GP IIb/IIIa): > 50000 nM
- IC50 (human purified αVβ5): 89.7 ± 11.6 nM

Compound: O=C(O)CC(CC1CCN(C(=O)CCCc2ccc3c(n2)NCCC3)CC1)c1cc(F)cc(F)c1 (stereo not drawn) [Cpd 38, β-(3,5-difluorophenyl)-1-[1-oxo-4-(5,6,7,8-tetrahydro-1,8-naphthyridin-2-yl)butyl]-4-piperidinebutanoic acid]
- IC50 (Human αvβ3): 484 nM
- IC50 (GP IIb/IIIa): > 50000 nM
- IC50 (human purified αVβ5): 2110 nM

Compound: O=C(O)CC(CC1CCN(C(=O)CCc2ccc3c(n2)NCCC3)CC1)c1cccc(C(F)(F)F)c1 (stereo not drawn) [Cpd 39, 1-[1-oxo-3-(5,6,7,8-tetrahydro-1,8-naphthyridin-2-yl)propyl]-β-[3-(trifluoromethyl)phenyl]-4-piperidinebutanoic acid]
- IC50 (Human αvβ3): 6.6 ± 1.8 nM
- IC50 (GP IIb/IIIa): > 50000 nM
- IC50 (human purified αVβ5): 28.7 ± 13.3 nM

Compound: O=C(O)CC(CC1CCN(C(=O)CCc2ccc3c(n2)NCCC3)CC1)c1ccc(OC(F)(F)F)cc1 (stereo not drawn) [Cpd 40, 1-[1-oxo-3-(5,6,7,8-tetrahydro-1,8-naphthyridin-2-yl)propyl]-β-[4-(trifluoromethoxy)phenyl]-4-piperidinebutanoic acid]
- IC50 (Human αvβ3): 5.2 ± 0.2 nM
- IC50 (GP IIb/IIIa): 24000 ± 9890 nM
- IC50 (human purified αVβ5): 308 ± 63 nM

Compound: O=C(O)CC(CC1CCN(C(=O)CCc2ccc3c(n2)NCCC3)CC1)c1ccc(-c2ccccc2)c(F)c1 (stereo not drawn) [Cpd 41, β-(2-fluoro[1,1′-biphenyl]-4-yl)-1-[1-oxo-3-(5,6,7,8-tetrahydro-1,8-naphthyridin-2-yl)propyl]-4-piperidinebutanoic acid]
- IC50 (Human αvβ3): 1.8 ± 1 nM
- IC50 (GP IIb/IIIa): 19300 ± 2600 nM
- IC50 (human purified αVβ5): 873 ± 158 nM

Compound: COc1ccc(C(CC(=O)O)CC2CCN(C(=O)CCc3ccc4c(n3)NCCC4)CC2)cc1F (stereo not drawn) [Cpd 42, β-(3-fluoro-4-methoxyphenyl)-1-[1-oxo-3-(5,6,7,8-tetrahydro-1,8-naphthyridin-2-yl)propyl]-4-piperidinebutanoic acid]
- IC50 (Human αvβ3): 0.7 ± 0.3 nM
- IC50 (GP IIb/IIIa): 5000 ± 740 nM
- IC50 (human purified αVβ5): 18.9 ± 4.6 nM

Compound: O=C(O)CC(CC1CCN(C(=O)CCc2ccc3c(n2)NCCC3)CC1)c1ccc(Oc2ccccc2)cc1 (stereo not drawn) [Cpd 43, 1-[1-oxo-3-(5,6,7,8-tetrahydro-1,8-naphthyridin-2-yl)propyl]-β-(4-phenoxyphenyl)-4-piperidinebutanoic acid]
- IC50 (Human αvβ3): 7.9 ± 0.7 nM
- IC50 (GP IIb/IIIa): 28800 ± 15800 nM
- IC50 (human purified αVβ5): 222 ± 88.5 nM

Compound: O=C(O)CC(CC1CCN(C(=O)CCc2ccc3c(n2)NCCC3)CC1)c1cncc2ccccc12 (stereo not drawn) [Cpd 44, β-[[1-[1-oxo-3-(5,6,7,8-tetrahydro-1,8-naphthyridin-2-yl)propyl]-4-piperidinyl]methyl]-4-isoquinolinepropanoic acid]
- IC50 (Human αvβ3): 2.2 ± 0.9 nM
- IC50 (GP IIb/IIIa): 5440 ± 1100 nM
- IC50 (human purified αVβ5): 2 ± 0.6 nM

Compound: O=C(O)CC(CC1CCN(C(=O)CCc2ccc3c(n2)NCCC3)CC1)c1cccnc1 (stereo not drawn) [Cpd 45, β-[[1-[1-oxo-3-(5,6,7,8-tetrahydro-1,8-naphthyridin-2-yl)propyl]-4-piperidinyl]methyl]-3-pyridinepropanoic acid]
- IC50 (Human αvβ3): 0.8 ± 0.1 nM
- IC50 (GP IIb/IIIa): 6610 ± 2850 nM
- IC50 (human purified αVβ5): 1.7 ± 0.3 nM

Compound: O=C(O)CC(CC1CCN(C(=O)CCc2ccc3c(n2)NCCC3)CC1)c1ccc2c(c1)CCO2 (stereo not drawn) [Cpd 46, β-(2,3-dihydro-5-benzofuranyl)-1-[1-oxo-3-(5,6,7,8-tetrahydro-1,8-naphthyridin-2-yl)propyl]-4-piperidinebutanoic acid]
- IC50 (Human αvβ3): 3.5 ± 0.6 nM
- IC50 (GP IIb/IIIa): 13600 ± 1330 nM
- IC50 (human purified αVβ5): 65.9 ± 17.1 nM

Compound: COc1ncc(C(CC(=O)O)CC2CCN(C(=O)CCc3ccc4c(n3)NCCC4)CC2)c(OC)n1 (stereo not drawn) [Cpd 47, 2,4-dimethoxy-β-[[1-[1-oxo-3-(5,6,7,8-tetrahydro-1,8-naphthyridin-2-yl)propyl]-4-piperidinyl]methyl]-5-pyrimidinepropanoic acid]
- IC50 (Human αvβ3): 1.4 ± 0.7 nM
- IC50 (GP IIb/IIIa): 1470 ± 370 nM
- IC50 (human purified αVβ5): 4.6 ± 1.7 nM

Compound: COc1ncc(C(CC(=O)O)CC2CCN(C(=O)CCc3ccc4c(n3)NCCC4)CC2)cn1 (stereo not drawn) [Cpd 48, 2-methoxy-β-[[1-[1-oxo-3-(5,6,7,8-tetrahydro-1,8-naphthyridin-2-yl)propyl]-4-piperidinyl]methyl]-5-pyrimidinepropanoic acid]
- IC50 (Human αvβ3): 1 ± 0.5 nM
- IC50 (GP IIb/IIIa): 1210 ± 200 nM
- IC50 (human purified αVβ5): 3.3 ± 1.4 nM

Compound: O=C(O)CC(CCC1CCN(C(=O)c2cccc(NC3=NCC(O)CN3)c2)CC1)c1cnc2ccccc2c1 (stereo not drawn) [Cpd 49, β-[2-[1-[3-[(1,4,5,6-tetrahydro-5-hydroxy-2-pyrimidinyl)amino]benzoyl]-4-piperidinyl]ethyl]-3-quinolinepropanoic acid]
- IC50 (Human αvβ3): 1.8 ± 0.5 nM
- IC50 (GP IIb/IIIa): 160 ± 20 nM
- IC50 (human purified αVβ5): 89.5 ± 25.5 nM

Compound: O=C(O)CC(CCC1CCN(C(=O)c2cccc(NC3=NCCCC3)c2)CC1)c1cnc2ccccc2c1 (stereo not drawn) [Cpd 50, β-[2-[1-[3-[(3,4,5,6-tetrahydro-2-pyridinyl)amino]benzoyl]-4-piperidinyl]ethyl]-3-quinolinepropanoic acid]
- IC50 (Human αvβ3): 15.6 ± 4.4 nM
- IC50 (GP IIb/IIIa): 190 ± 40 nM
- IC50 (human purified αVβ5): 676 nM

Compound: O=C(O)CC(CCC1CCN(C(=O)CCc2ccc3c(n2)NCCC3)CC1)c1cnc2ccccc2c1 (stereo not drawn) [Cpd 51, β-[2-[1-[1-oxo-3-(5,6,7,8-tetrahydro-1,8-naphthyridin-2-yl)propyl]-4-piperidinyl]ethyl]-3-quinolinepropanoic acid]
- IC50 (Human αvβ3): 3 ± 0.6 nM
- IC50 (GP IIb/IIIa): 480 ± 10 nM
- IC50 (human purified αVβ5): 169 ± 19 nM

Compound: O=C(O)CC(CCC1CCN(C(=O)c2cccc(NC3=NCCCC3)c2)CC1)c1ccc2c(c1)OCO2 (stereo not drawn) [Cpd 53, β-(1,3-benzodioxol-5-yl)-1-[3-[(3,4,5,6-tetrahydro-2-pyridinyl)amino]benzoyl]-4-piperidinepentanoic acid]
- IC50 (Human αvβ3): 29.8 ± 13.7 nM
- IC50 (GP IIb/IIIa): 940 ± 50 nM
- IC50 (human purified αVβ5): 138 ± 41.5 nM

Compound: O=C(O)CC(CCC1CCN(C(=O)c2cccc(NC3=NCC(O)CN3)c2)CC1)c1ccc2c(c1)OCO2 (stereo not drawn) [Cpd 54, β-(1,3-benzodioxol-5-yl)-1-[3-[(1,4,5,6-tetrahydro-5-hydroxy-2-pyrimidinyl)amino]benzoyl]-4-piperidinepentanoic acid]
- IC50 (Human αvβ3): 1.7 ± 0.5 nM
- IC50 (GP IIb/IIIa): 240 nM
- IC50 (human purified αVβ5): 34.7 ± 11.7 nM

Compound: O=C(O)CC(CCC1CCN(C(=O)Cc2ccc3c(n2)NCCC3)CC1)c1ccc2c(c1)OCO2 (stereo not drawn) [Cpd 55, β-(1,3-benzodioxol-5-yl)-1-[(5,6,7,8-tetrahydro-1,8-naphthyridin-2-yl)acetyl]-4-piperidinepentanoic acid]
- IC50 (Human αvβ3): 95 nM
- IC50 (GP IIb/IIIa): 15600 nM
- IC50 (human purified αVβ5): 737 nM

Compound: O=C(O)CC(CC1CCN(C(=O)CCc2ccc3c(n2)NCCC3)CC1)c1ccc2ccccc2c1 (stereo not drawn) [Cpd 56, β-(2-naphthalenyl)-1-[1-oxo-3-(5,6,7,8-tetrahydro-1,8-naphthyridin-2-yl)propyl]-4-piperidinebutanoic acid]
- IC50 (Human αvβ3): 1.9 ± 0.6 nM
- IC50 (GP IIb/IIIa): 39100 ± 785 nM
- IC50 (human purified αVβ5): 24.5 ± 6.5 nM

Compound: O=C(O)CCCC1CCN(C(=O)CCc2ccc3c(n2)NCCC3)CC1 [Cpd 61]
- IC50 (Human αvβ3): 4.5 ± 0.7 nM
- IC50 (GP IIb/IIIa): 37500 ± 31600 nM
- IC50 (human purified αVβ5): 25.3 ± 7.3 nM

Compound: CCOC(=O)CCCC1CCN(C(=O)CCc2ccc3c(n2)NCCC3)CC1 [Cpd 68, 4-[1-(3-5,6,7,8-Tetrahydro-[1,8]naphthyridin-2-yl-propionyl)-piperidin-4-yl]-butyric acid ethyl ester]
- IC50 (Human αvβ3): 413 nM
- IC50 (GP IIb/IIIa): 35600 nM
- IC50 (human purified αVβ5): > 1000 nM

Compound: CC(C)OC(=O)CCCC1CCN(C(=O)CCc2ccc3c(n2)NCCC3)CC1 [Cpd 69, 4-[1-(3-5,6,7,8-Tetrahydro-[1,8]naphthyridin-2-yl-propionyl)-piperidin-4-yl]-butyric acid isopropyl ester]
- IC50 (Human αvβ3): > 500 nM
- IC50 (GP IIb/IIIa): > 50000 nM
- IC50 (human purified αVβ5): > 1000 nM

Compound: CC(C)(C)OC(=O)CCCC1CCN(C(=O)CCc2ccc3c(n2)NCCC3)CC1 [Cpd 70, 4-[1-(3-5,6,7,8-Tetrahydro-[1,8]naphthyridin-2-yl-propionyl)-piperidin-4-yl]-butyric acid tert-butyl ester]
- IC50 (Human αvβ3): > 500 nM
- IC50 (GP IIb/IIIa): > 50000 nM
- IC50 (human purified αVβ5): > 1000 nM

Compound: CCCCCCCCOC(=O)CCCC1CCN(C(=O)CCc2ccc3c(n2)NCCC3)CC1 [Cpd 71, 4-[1-(3-5,6,7,8-Tetrahydro-[1,8]naphthyridin-2-yl-propionyl)-piperidin-4-yl]-butyric acid octyl ester]
- IC50 (Human αvβ3): > 500 nM
- IC50 (GP IIb/IIIa): > 50000 nM
- IC50 (human purified αVβ5): > 1000 nM

Compound: COC(=O)CCCC1CCN(C(=O)CCc2ccc3c(n2)NCCC3)CC1 [Cpd 73, 4-[1-(3-5,6,7,8-Tetrahydro-[1,8]naphthyridin-2-yl-propionyl)-piperidin-4-yl]-butyric acid methyl ester]
- IC50 (Human αvβ3): > 500 nM
- IC50 (GP IIb/IIIa): > 50000 nM
- IC50 (human purified αVβ5): > 1000 nM

Compound: CC(C)(C)C(=O)OCOC(=O)CCCC1CCN(C(=O)CCc2ccc3c(n2)NCCC3)CC1 [Cpd 74, 4-[1-(3-5,6,7,8-Tetrahydro-[1,8]naphthyridin-2-yl-propionyl)-piperidin-4-yl]-butyric acid 2,2-dimethyl-propionyloxymethyl ester]
- IC50 (Human αvβ3): 193 nM
- IC50 (GP IIb/IIIa): > 50000 nM
- IC50 (human purified αVβ5): > 1000 nM

Compound: COc1cc(C(CC(=O)O)CC2CCN(C(=O)CCc3ccc4c(n3)NCCC4)CC2)ccc1O (stereo not drawn) [Cpd 76a]
- IC50 (Human αvβ3): 1.1 ± 0.2 nM
- IC50 (GP IIb/IIIa): 10400 nM
- IC50 (human purified αVβ5): 16.9 ± 2.1 nM

Compound: β-[2-[1-[1-oxo-3-(5,6,7,8-tetrahydro-1,8-naphthyridin-2-yl)propyl]-4-piperidinyl]ethyl]-3-quinolinepropanoic acid [Cpd 52]
- IC50 (Human αvβ3): 6.4 ± 1.4 nM
- IC50 (GP IIb/IIIa): 570 ± 40 nM
- IC50 (human purified αVβ5): > 50000 nM
